Test results from ChEMBL document CHEMBL4433257, “Novel conjugates of podophyllotoxin and coumarin: Synthesis, cytotoxicities, cell cycle arrest, binding CT DNA and inhibition of Topo IIβ” (Bioorg Med Chem Lett, 2019).
The source made the active and inactive calls. The rule behind the calls is not given here.

What was measured:
[1] = system: HeLa; assay: Cytotoxicity against human HeLa cells incubated for 48 hrs by MTT assay; type: functional, cell-based
[2] = system: A549; assay: Cytotoxicity against human A549 cells incubated for 48 hrs by MTT assay; type: functional, cell-based; details: A549, 48 h
[3] = system: HepG2; assay: Cytotoxicity against human HepG2 cells incubated for 48 hrs by MTT assay; type: functional, cell-based; details: HepG2, 48 h
[4] = system: LoVo; assay: Cytotoxicity against human LoVo cells incubated for 48 hrs by MTT assay; type: functional, cell-based
[5] = system: LoVo; assay: Cell cycle arrest in human LoVo cells assessed as accumulation at G1 phase at 10 uM incubated for 24 hrs by propidium iodide staining based flow cytometry analysis (reference value: 51.9%); type: functional
[6] = system: Calf thymus DNA; assay: Binding affinity to calf thymus DNA assessed as reduction in absorbance of DNA at 20 to 40 uM by UV/visible spectrophotometric analysis; type: nucleic-acid assay; details: Bos taurus
[7] = system: LoVo; assay: Cell cycle arrest in human LoVo cells assessed as decrease in G2/M phase cell count incubated for 24 hrs by propidium iodide staining based flow cytometry analysis; type: functional
[8] = system: LoVo; assay: Antiproliferative activity against human LoVo cells assessed as abnormal mitotic spindle formation at 20 uM incubated for 6 hrs by immunofluorescence microscopy assay; type: functional, cell-based
[9] = system: LoVo; assay: Induction of cell cycle arrest in human LoVo cells assessed as increase in P21 gene expression level incubated for 24 hrs by Western blot analysis; type: functional, cell-based
[10] = system: LoVo; assay: Cell cycle arrest in human LoVo cells assessed as accumulation at G1 phase at 5 uM incubated for 72 hrs by propidium iodide staining based flow cytometry analysis relative to control; type: functional
[11] = system: LoVo; assay: Induction of cell cycle arrest in human LoVo cells assessed as change in cdc2 gene expression level at 1 to 10 uM incubated for 24 hrs by Western blot analysis; type: functional, cell-based
[12] = system: LoVo; assay: Induction of cell cycle arrest in human LoVo cells assessed as decrease in cyclin D1 gene expression level incubated for 24 hrs by Western blot analysis; type: functional, cell-based
[13] = system: LoVo; assay: Induction of cell cycle arrest in human LoVo cells assessed as change in cyclin B1 gene expression level at 1 to 10 uM incubated for 24 hrs by Western blot analysis; type: functional, cell-based
[14] = system: LoVo; assay: Induction of cell cycle arrest in human LoVo cells assessed as decrease in topo 2alpha expression level at 5 uM incubated for 12 hrs by Western blot analysis; type: functional, cell-based
[15] = system: Calf thymus DNA; assay: Binding affinity to calf thymus DNA assessed as reduction in compound emission intensity at 10 uM using varying DNA level by spectrofluorimetric analysis; type: nucleic-acid assay; details: Bos taurus
[16] = system: LoVo; assay: Antiproliferative activity against human LoVo cells assessed as disruption of microtubule organization at 10 to 20 uM incubated for 6 hrs by immunofluorescence microscopy assay; type: functional, cell-based
[17] = system: LoVo; assay: Cell cycle arrest in human LoVo cells assessed as accumulation at G1 phase at 5 uM incubated for 24 hrs by propidium iodide staining based flow cytometry analysis (reference value: 51.9%); type: functional
[18] = system: LoVo; assay: Cell cycle arrest in human LoVo cells assessed as accumulation at G1 phase at 5 uM incubated for 48 hrs by propidium iodide staining based flow cytometry analysis relative to control; type: functional
[19] = system: LoVo; assay: Antiproliferative activity against human LoVo cells assessed as induction of nuclear cleavage at 20 uM incubated for 6 hrs by immunofluorescence microscopy assay; type: functional, cell-based
[20] = system: LoVo; assay: Cell cycle arrest in human LoVo cells assessed as increase in accumulation at G1 phase incubated for 24 hrs by propidium iodide staining based flow cytometry analysis; type: functional
[21] = system: Calf thymus DNA; assay: Binding affinity to calf thymus DNA assessed as reduction in absorbance of DNA at 50 uM using varying DNA level by UV/visible spectrophotometric analysis; type: nucleic-acid assay; details: Bos taurus
[22] = system: LoVo; assay: Antiproliferative activity against human LoVo cells assessed as induction of nuclei damage at 10 to 20 uM incubated for 6 hrs by immunofluorescence microscopy assay; type: functional, cell-based
[23] = system: LoVo; assay: Antiproliferative activity against human LoVo cells assessed as interference with mitosis at 10 to 20 uM incubated for 6 hrs by immunofluorescence microscopy assay; type: functional, cell-based
[24] = system: LoVo; assay: Induction of cell cycle arrest in human LoVo cells assessed as decrease in topo 2beta expression level at 5 uM incubated for 12 hrs by Western blot analysis; type: functional, cell-based
[25] = system: LoVo; assay: Antiproliferative activity against human LoVo cells assessed as meshy microtubule network shrinkage around nucleus incubated for 6 hrs by immunofluorescence microscopy assay; type: functional, cell-based
[26] = system: LoVo; assay: Induction of cell cycle arrest in human LoVo cells assessed as change in cdc2 gene expression level at 10 uM incubated for 24 hrs by Western blot analysis; type: functional, cell-based
[27] = system: LoVo; assay: Induction of cell cycle arrest in human LoVo cells assessed as decrease in cyclin D1 gene expression level at 10 uM incubated for 24 hrs by Western blot analysis; type: functional, cell-based
[28] = system: LoVo; assay: Antiproliferative activity against human LoVo cells assessed as disorganization of microtubule network at 10 uM incubated for 6 hrs by immunofluorescence microscopy assay; type: functional, cell-based
[29] = system: LoVo; assay: Antiproliferative activity against human LoVo cells assessed as nuclear changes at 10 uM incubated for 6 hrs by immunofluorescence microscopy assay; type: functional, cell-based
[30] = system: LoVo; assay: Induction of cell cycle arrest in human LoVo cells assessed as change in P21 gene expression level at 10 uM incubated for 24 hrs by Western blot analysis; type: functional, cell-based
[31] = system: LoVo; assay: Induction of cell cycle arrest in human LoVo cells assessed as change in cyclin D1 gene expression level at 10 uM incubated for 24 hrs by Western blot analysis; type: functional, cell-based

COc1cc([C@@H]2c3cc4c(cc3[C@@H](n3cc(CNc5cc(=O)oc6ccc(C)cc56)nn3)[C@H]3COC(=O)[C@H]23)OCO4)cc(OC)c1O
IC50 [1]: 38.3 µM
IC50 [2]: 34.8 µM
IC50 [3]: 17.2 µM
IC50 [4]: 76 µM

COc1cc([C@@H]2c3cc4c(cc3[C@@H](n3cc(COc5cc(=O)oc6ccccc56)nn3)[C@H]3COC(=O)[C@H]23)OCO4)cc(OC)c1O
IC50 [1]: 32.2 µM
IC50 [2]: > 100 µM
IC50 [3]: 31.3 µM
IC50 [4]: 40.8 µM

COc1cc([C@@H]2c3cc4c(cc3[C@@H](n3cc(CNc5cc(=O)oc6ccc(Br)cc56)nn3)[C@H]3COC(=O)[C@H]23)OCO4)cc(OC)c1O
IC50 [1]: 15.2 µM
IC50 [2]: 8.6 µM
IC50 [3]: 9.3 µM
IC50 [4]: 8.7 µM

COc1cc([C@@H]2c3cc4c(cc3[C@@H](n3cc(CNc5cc(=O)oc6ccccc56)nn3)[C@H]3COC(=O)[C@H]23)OCO4)cc(OC)c1O
IC50 [1]: 27.2 µM
IC50 [2]: 21.4 µM
IC50 [3]: 27.5 µM
IC50 [4]: 38.6 µM

COc1ccc2c(NCc3cn([C@@H]4c5cc6c(cc5[C@@H](c5cc(OC)c(O)c(OC)c5)[C@H]5C(=O)OC[C@@H]54)OCO6)nn3)cc(=O)oc2c1
IC50 [1]: 48.2 µM
IC50 [2]: 28.1 µM
IC50 [3]: 11.1 µM
IC50 [4]: 12.6 µM

COc1cc([C@@H]2c3cc4c(cc3[C@@H](n3cc(COc5cc(=O)oc6cc(Br)ccc56)nn3)[C@H]3COC(=O)[C@H]23)OCO4)cc(OC)c1O
IC50 [1]: > 100 µM
IC50 [2]: 23.8 µM
IC50 [3]: 15.6 µM
IC50 [4]: 24.2 µM

COc1cc([C@@H]2c3cc4c(cc3[C@@H](n3cc(COc5cc(=O)oc6ccc(Br)cc56)nn3)[C@H]3COC(=O)[C@H]23)OCO4)cc(OC)c1O
IC50 [1]: 20.1 µM
IC50 [2]: 27.7 µM
IC50 [3]: 4 µM
IC50 [4]: 19.8 µM

COc1cc([C@@H]2c3cc4c(cc3[C@@H](n3cc(COc5cc(=O)oc6ccc(C)cc56)nn3)[C@H]3COC(=O)[C@H]23)OCO4)cc(OC)c1O
IC50 [1]: 45.4 µM
IC50 [2]: > 100 µM
IC50 [3]: 40.2 µM
IC50 [4]: 33.2 µM

COc1cc([C@@H]2c3cc4c(cc3[C@@H](n3cc(CNc5cc(=O)oc6cc(Br)ccc56)nn3)[C@H]3COC(=O)[C@H]23)OCO4)cc(OC)c1O
IC50 [1]: 19.8 µM
IC50 [2]: 13.3 µM
IC50 [3]: 13.6 µM
IC50 [4]: 7.3 µM

COc1ccc2oc(=O)cc(OCc3cn([C@@H]4c5cc6c(cc5[C@@H](c5cc(OC)c(O)c(OC)c5)[C@H]5C(=O)OC[C@@H]54)OCO6)nn3)c2c1
IC50 [1]: 18.3 µM
IC50 [2]: 19.6 µM
IC50 [3]: 8 µM
IC50 [4]: 9.4 µM

COc1ccc2c(OCc3cn([C@@H]4c5cc6c(cc5[C@@H](c5cc(OC)c(O)c(OC)c5)[C@H]5C(=O)OC[C@@H]54)OCO6)nn3)cc(=O)oc2c1
IC50 [1]: > 100 µM
IC50 [2]: 40.3 µM
IC50 [3]: 27.5 µM
IC50 [4]: > 100 µM

COc1ccc2oc(=O)cc(NCc3cn([C@@H]4c5cc6c(cc5[C@@H](c5cc(OC)c(O)c(OC)c5)[C@H]5C(=O)OC[C@@H]54)OCO6)nn3)c2c1
Activity [5]: 79%
Activity [6]: Active
Activity [7]: Dose-dependent effect
Activity [8]: Active
Activity [9]: Dose-dependent effect
Activity [10]: 90%
Activity [11]: inactive
Activity [12]: Dose-dependent effect
Activity [13]: inactive
IC50 [1]: 9.7 µM
Activity [14]: Active
IC50 [2]: 17.5 µM
Activity [15]: Active
Activity [16]: Active
Activity [17]: 62%
Activity [18]: 70.1%
Activity [19]: Active
IC50 [3]: 9.9 µM
Activity [20]: Dose-dependent effect
Activity [21]: inactive
Activity [22]: Active
Activity [23]: Active
Activity [24]: Active
IC50 [4]: 4.9 µM
Activity [25]: Active

COc1cc([C@@H]2c3cc4c(cc3[C@@H](O[C@@H]3O[C@@H]5CO[C@@H](C)O[C@H]5[C@H](O)[C@H]3O)[C@H]3COC(=O)[C@H]23)OCO4)cc(OC)c1O [ETOPOSIDE]
Activity [26]: Active
Activity [10]: 2%
Activity [27]: Active
Activity [14]: Active
Activity [28]: Active
IC50 [2]: 25.6 µM
Activity [17]: 29.5%
Activity [29]: inactive
Activity [30]: Active
IC50 [3]: 10.5 µM
Activity [24]: Active
IC50 [4]: 14.9 µM
Activity [31]: Active
